# Experimental data taken from patent US7029846B2, “Site-specific protein modification” (University of Medicine and Dentistry of New Jersey, priority 2000, dated 2006).
# Starred links: 1 amine or outer side, 2 acyl side, 3 side chain; linkers in the order of their positions; H or OH if unused. Non-standard residues stand in square brackets, D forms with d. No end group written: not given here. Tyr(3-Ac) = 3-acetyl-tyrosine, CC(=O)c1cc(C[C@H](N[*:1])C(=O)[*:2])ccc1O[*:3]
# Molecular target: rhodamine labeled TAR RNA (TAR-Rh)
# Test: FRET fluorescence quenching titration of fluorescein labeled Tat peptide with rhodamine labeled TAR RNA
# Assay type: binding, HIV-1
# Details: quenching of Tat-Fl (5 nM) emission at 512 nm with increasing TAR-Rh, 50 mM Tris-HCl, pH 7.4 at 25° C., 20 mM KCl, fit to quadratic equation (1), read-out: dissociation constant (KD)
# Method: FIG. 2(B). Fluorescence intensity of Tat-Fl (5 nM) at 512 nm in the presence of increasing TAR-Rh concentrations. The solid line represents the best fits of the data by nonlinear regression to quadratic equation (1). The fluorescence measurements were performed on PTI fluorescence spectrophotometer controlled by Felix software. The excitation wavelength was 492 nm and slits width was set 3.5 nm for both excitation and emission. All samples were corrected for the light source excitation effect and for the background intensity of buffer fluorescence as well as for dilution factors. Buffer conditions: […] Tris-HCl, pH 7.4 at 25° C., 20 mM KCl.
# To determine the binding affinities of a Tat peptide under physiological conditions and test the application of acetyl-Tyr, we developed a fluorescence resonance energy transfer (FRET) system containing TAR RNA and a Tat peptide uniquely labeled with donor and acceptor dye molecules (FIG. 1). […] (Clegg, R. M. (1992) Fluorescence resonance energy transfer and nucleic acids, Methods Enzymol. 211, 353–88; Yang, M., and Millar, D. P. (1997) Fluorescence resonance energy transfer as a probe of DNA structure and function, Methods Enzymol. 278, 417–444). The donor's lifetime and quantum yield are reduced upon energy transfer, and the acceptor fluorescence is increased, or sensitized. […]
substance,measurement,value
Acetyl-Tyr-Tat peptide: HIV-1 Tat peptide (amino acids 47–56) with Tyr-47 replaced by 3-Acetyl-Tyrosine ([Tyr(3-Ac)]GRKKRRQRR),Kd,1 ± 0.5 nM
